Laboratory results as given in US10513519B2, “Solid forms of (1S,4S)-4-(2-(((3S,4R)-3-fluorotetrahydro-2H-pyran-4-yl)amino)-8-((2,4,6-trichlorophenyl)amino)-9H-purin-9-yl)-1-methylcyclohexane-1-carboxamide and methods of their use” (Signal Pharmaceuticals, LLC, priority 2016, dated 2019).

Tested on: cancer cell lines
Assay: Multiplexed cytotoxicity assay: cell proliferation (relative cell count IC50, GI50)
Type: cell-based
Procedure: (§1) Cells are grown in RPMI1640, 10% FBS, 2 mM L-alanyl-L-Glutamine, 1 mM Na pyruvate or a special medium in a humidified atmosphere of 5% CO2 at 37° C. Cells are seeded into 384-well plates and incubated in a humidified atmosphere of 5% CO2 at 37° C. Compounds are added 24 h post cell seeding. At the same time, a time zero untreated cell plate is generated. After a 72 hour incubation period, cells are fixed and stained with fluorescently labeled antibodies and nuclear dye to allow visualization of nuclei, apoptotic cells and mitotic cells. Apoptotic cells are detected using an anti-active caspase-3 antibody. Mitotic cells are detected using an anti phospho-histone-3 antibody. Compounds are serially diluted 3.16-fold and assayed over 10 concentrations in a final assay concentration of 0.1% DMSO from the highest test concentration of 10 μM. Automated fluorescence microscopy was carried out using a Molecular Devices ImageXpress Micro XL high-content imager, and images are collected with a 4× objective.
Sixteen-bit TIFF images are acquired and analyzed with MetaXpress 5.1.0.41 software. Cell proliferation is measured by the signal intensity of the incorporated nuclear dye. The cell proliferation assay output is referred to as the relative cell count. To determine the cell proliferation end point, the cell proliferation data output is transformed to percentage of control (POC) using the following formula: POC=relative cell count(compound wells)/relative cell count(vehicle wells)×100
GI50 is the concentration needed to reduce the observed growth by half. This is the concentration that inhibits the growth to the level midway between growth in untreated cells and the number of cells seeded in the well (Time zero value). The IC50 values are calculated using nonlinear regression to fit data to a sigmoidal 4 point, 4 parameter One-Site dose response model, where: y(fit)=A+[(B−A)/(1+((C/x)^D))].
as §1, with “In another experiment, cells were grown” for “Cells are grown”, “Cells were” for “Cells are”, “Compounds were” for “Compounds are”, “plate was” for “plate is”, “cells were” for “cells are”, “images were” for “images are”
Sixteen-bit TIFF images were acquired and analyzed with MetaXpress 5.1.0.41 software. Cell proliferation was measured by the signal intensity of the incorporated nuclear dye. The cell proliferation assay output was referred to as the relative cell count. To determine the cell proliferation end point, the cell proliferation data output was transformed to percentage of control (POC) using the following formula: POC=relative cell count(compound wells)/relative cell count(vehicle wells)×100
GI50 refers to the concentration needed to reduce the observed growth by half. This corresponds to the concentration that inhibits the growth to the level midway between growth in untreated cells and the number of cells seeded in the well (Time zero value). The IC50 values were calculated using nonlinear regression to fit data to a sigmoidal 4 point, 4 parameter One-Site dose response model, where: y(fit)=A+[(B−A)/(1+((C/x)^D))].

[1] = Homo sapiens, T47D, T47D (Breast)
[2] = Homo sapiens, T98G, T98G (CNS, Glioma)
[3] = Homo sapiens, TCC-SUP, TCCSUP (Bladder)
[4] = Homo sapiens, THP-1, THP1 (Hematopoietic and lymphoid, Leukemia)
[5] = Homo sapiens, U2OS, 72 h, Soft Tissue, Osteosarcoma
[6] = Homo sapiens, U138-MG, U138MG (CNS, Glioma)
[7] = Homo sapiens, U-87 MG, U87MG (CNS, Glioma)
[8] = Homo sapiens, U-118-MG, U118MG (CNS, Glioma)
[9] = Homo sapiens, UMUC3, UMUC3 (Bladder)
[10] = Homo sapiens, WM 266-4, 72 h, WM2664, Skin, Melanoma, 72 h
[11] = Homo sapiens, WiDr, WIDR (Colon)
[12] = Homo sapiens, YAPC, 72 h, Pancreas
[13] = Homo sapiens, ZR-75-1, ZR751 (Breast)
[14] = Hs 445, HS445 (Hematopoietic and lymphoid, Lymphoma)
[15] = KG1 (Hematopoietic and lymphoid, Leukemia)
[16] = KHOS-240S, 72 h, KHOS240S, Soft Tissue, Osteosarcoma
[17] = MS751, 72 h, MS751, Female GU, Ovary, 72 h
[18] = MX1 (Hematopoietic and lymphoid, Leukemia)
[19] = NAMALWA (Hematopoietic and lymphoid, Lymphoma)
[20] = OE21, 72 h, OE21, Head and Neck, Esophageal, 72 h
[21] = RAMOSRA1 (Hematopoietic and lymphoid, Lymphoma)
[22] = SKO-007, 72 h, SKO007, Hematopoietic and lymphoid, Myeloma, 72 h
[23] = SR (Hematopoietic and lymphoid, Lymphoma)
[24] = SW579, 72 h, SW579, Endocrine, Thyroid, 72 h
[25] = TE 381.T, 72 h, TE381T, Soft Tissue, Sarcoma
[26] = TF1 (Hematopoietic and lymphoid, Leukemia)
[27] = TUR (Hematopoietic and lymphoid, Lymphoma)

## C[C@]1(C(N)=O)CC[C@@H](n2c(Nc3c(Cl)cc(Cl)cc3Cl)nc3cnc(N[C@@H]4CCOC[C@H]4F)nc32)CC1 [Compound 1, cis-4-[2-{[(3S,4R)-3-fluorooxan-4-yl]amino}-8-(2,4,6-trichloroanilino)-9H-purin-9-yl]-1-methylcyclohexane-1-carboxamide]
Homo sapiens, SiHa, SIHA (Female GU, Cervix)
  IC50: > 10 µM
[1]
  GI50: > 10 µM
  IC50: > 10 µM
[2]
  GI50: > 10 µM
  IC50: > 10 µM
[3]
  GI50: 2.21 µM
  IC50: 6.59 µM
[4]
  GI50: 0.0251 µM
  IC50: 0.0495 µM
[5]
  GI50: 0.23 µM
  IC50: 0.373 µM
[6]
  GI50: 0.053 µM
  IC50: > 10 µM
[7]
  GI50: 0.0692 µM
  IC50: 0.101 µM
[8]
  GI50: 0.175 µM
  IC50: > 10 µM
[9]
  GI50: 0.149 µM
  IC50: 0.201 µM
[10]
  GI50: 0.012 µM
  IC50: 0.0354 µM
[11]
  GI50: 0.0104 µM
  IC50: 0.0133 µM
[12]
  GI50: 0.183 µM
  IC50: 0.67 µM
[13]
  GI50: 0.0943 µM
  IC50: 7.7 µM
[14]
  GI50: 0.0143 µM
  IC50: 0.0377 µM
Hs766T, 72 h, Pancreas
  GI50: 0.0343 µM
  IC50: 0.0793 µM
J82 (Bladder)
  GI50: > 10 µM
  IC50: > 10 µM
[15]
  GI50: 0.0017 µM
  IC50: 0.0325 µM
[16]
  GI50: > 10 µM
  IC50: > 10 µM
KPL-1, KPL1 (Breast)
  GI50: > 10 µM
  IC50: > 10 µM
[17]
  GI50: 6.91 µM
  IC50: 9.51 µM
MT3 (Breast)
  GI50: 0.674 µM
  IC50: 1.08 µM
[18]
  GI50: 0.0401 µM
  IC50: 0.0619 µM
[19]
  GI50: 0.0181 µM
  IC50: 0.0239 µM
OCUG-1, OCUG1 (Liver)
  GI50: 0.464 µM
  IC50: 1.29 µM
[20]
  GI50: 0.0939 µM
  IC50: 0.124 µM
[21]
  GI50: 3.66 µM
  IC50: 3.84 µM
RKO (Colon)
  GI50: 0.0353 µM
  IC50: 0.0405 µM
RKOAS451, RKOAS451 (Colon)
  GI50: 0.0405 µM
  IC50: 0.0449 µM
SH4 (Skin, Melanoma)
  GI50: 0.0208 µM
  IC50: 0.029 µM
[22]
  GI50: 0.0274 µM
  IC50: 0.482 µM
[23]
  GI50: 1.42 µM
  IC50: 1.84 µM
[24]
  GI50: 0.0477 µM
  IC50: 0.0708 µM
T24 (Bladder)
  GI50: 0.233 µM
  IC50: 0.274 µM
[25]
  GI50: 0.0076 µM
  IC50: 0.0128 µM
[26]
  GI50: 0.0015 µM
  IC50: 0.0095 µM
[27]
  GI50: 0.0415 µM
  IC50: 0.0539 µM
Y79 (Eye-retinoblastoma, Eye)
  GI50: > 10 µM
  IC50: > 10 µM
